In patent US8629300B2, “Arylamine-substituted divinyl fluorenes and their use for electrophotographic applications, and for OLEDs (organic light emitting devices)” (Sensient Imaging Technologies GmbH, priority 2006, dated 2014):

Assay: Solubility analysis in methylen chloride or THF
Assay type: physicochemical
Procedure: Compound 12 complies with the solubility requirements set by the industry of 1 g substance/6 ml methylen chloride or THF. This compound was scaled up to 35 g. The compound was brought to an HPLC purity of >99.5% by using conventional purification methods, like e.g. recrystallization or column chromatography.

- solubility (complies with the solubility requirements set by the industry): ≥ 1 g substance/6 ml
SMILES: Cc1ccc(N(c2ccc(C)cc2)c2ccc(/C=C/c3ccc4c(c3)C(C)(C)c3cc(/C=C/c5ccc(N(c6ccc(C)cc6)c6ccc(C)cc6)cc5)ccc3-4)cc2)cc1 [Compound 12, 2,7-Bis-(4-di-p-tolylaminophenylethenyl)-9,9-dimethyl-9H-fluorene]
